Source: patent US12433865B2, “Compositions comprising PGI2-receptor agonists and processes for the preparation thereof” (Arena Pharmaceuticals, Inc., priority 2018, dated 2025)

Assay: Release (dissolution) profile of capsules, USP Apparatus 2 (paddle)
Type: physicochemical
Conditions: 0.04 mg capsule; for Release rate (percentage of Compound 1 released over time): Poloxamer 188:food grade GMS 50:50
Source text: USP Apparatus 2 (Paddle Apparatus) is described, for example, in the United States Pharmacopeial Convention, Feb. 1, 2012, Chapter <711> (“Dissolution”), incorporated by reference herein in its entirety. See http://www.usp.org/sites/default/files/usp_pdf/EN/USPNF/revisions/m99470-gc_711.pdf. The assembly from Apparatus 1 is used, except that a paddle formed from a blade and a shaft is used as the stirring element. The shaft is positioned so that its axis is not more than 2 mm from the vertical axis of the vessel at any point and rotates smoothly without significant wobble that could affect the results. The vertical center line of the blade passes through the axis of the shaft so that the bottom of the blade is flush with the bottom of the shaft. A distance of 25±2 mm between the bottom of the blade and the inside bottom of the vessel is maintained during the test. The metallic or suitably inert, rigid blade and shaft comprise a single entity. A suitable two-part detachable design may be used provided the assembly remains firmly engaged during the test. The paddle blade and shaft may be coated with a suitable coating so as to make them inert. The dosage unit is allowed to sink to the bottom of the vessel before rotation of the blade is started. A small, loose piece of nonreactive material, such as not more than a few turns of wire helix, may be attached to dosage units that would otherwise float. Other validated sinker devices may be used.
Unless otherwise specified, the release profiles for capsules were measured using USP Apparatus 2 (paddle).
All release profiles disclosed in Tables 3c-3p were measured with USP Apparatus 2 (paddle) at 50 rpm in 500 mL of aqueous sodium phosphate at a concentration of 0.05 M (pH=6.8). The values in a given table relate to capsules obtained from the same batch. Values shown represent mean values over a number of dissolution tests (“n” in each table) in each case.

release profile post-curing (Poloxamer 188:food grade GMS 50:50, cured 18 hours, one week, two weeks and four weeks post-curing (FIG. 6)): remained substantially the same
Release rate (percentage of Compound 1 released over time) (1 wk (40° C.) storage, 30 min): 11.1%
Release rate (percentage of Compound 1 released over time) (1 wk (40° C.) storage, 60 min): 22.6%
Release rate (percentage of Compound 1 released over time) (1 wk (40° C.) storage, 120 min): 40.1%
Release rate (percentage of Compound 1 released over time) (1 wk (40° C.) storage, 180 min): 59.2%
Release rate (percentage of Compound 1 released over time) (1 wk (40° C.) storage, 240 min): 71.8%
Release rate (percentage of Compound 1 released over time) (1 wk (40° C.) storage, 360 min): 88.4%
Release rate (percentage of Compound 1 released over time) (1 wk (40° C.) storage, 480 min): 92.2%
Release rate (percentage of Compound 1 released over time) (1 wk (40° C.) storage, 600 min): 96.2%
Release rate (percentage of Compound 1 released over time) (1 wk (40° C.) storage, 720 min): 95.3%
Release rate (percentage of Compound 1 released over time) (1 wk (40° C.) storage, 735 min): 96.1%
Release rate (percentage of Compound 1 released over time) (2 wks (40° C.) storage, 30 min): 10.8%
Release rate (percentage of Compound 1 released over time) (2 wks (40° C.) storage, 60 min): 18.3%
Release rate (percentage of Compound 1 released over time) (2 wks (40° C.) storage, 120 min): 36.8%
Release rate (percentage of Compound 1 released over time) (2 wks (40° C.) storage, 180 min): 52.9%
Release rate (percentage of Compound 1 released over time) (2 wks (40° C.) storage, 240 min): 67.4%
Release rate (percentage of Compound 1 released over time) (2 wks (40° C.) storage, 360 min): 83.3%
Release rate (percentage of Compound 1 released over time) (2 wks (40° C.) storage, 480 min): 90.3%
Release rate (percentage of Compound 1 released over time) (2 wks (40° C.) storage, 600 min): 93.8%
Release rate (percentage of Compound 1 released over time) (2 wks (40° C.) storage, 720 min): 93.7%
Release rate (percentage of Compound 1 released over time) (2 wks (40° C.) storage, 735 min): 94.3%
Release rate (percentage of Compound 1 released over time) (4 wks (40° C.) storage, 30 min): 7.3%
Release rate (percentage of Compound 1 released over time) (4 wks (40° C.) storage, 60 min): 17.7%
Release rate (percentage of Compound 1 released over time) (4 wks (40° C.) storage, 120 min): 37.4%
Release rate (percentage of Compound 1 released over time) (4 wks (40° C.) storage, 180 min): 54.6%
Release rate (percentage of Compound 1 released over time) (4 wks (40° C.) storage, 240 min): 70.3%
Release rate (percentage of Compound 1 released over time) (4 wks (40° C.) storage, 360 min): 87.5%
Release rate (percentage of Compound 1 released over time) (4 wks (40° C.) storage, 480 min): 90,9%
Release rate (percentage of Compound 1 released over time) (4 wks (40° C.) storage, 600 min): 93.2%
Release rate (percentage of Compound 1 released over time) (4 wks (40° C.) storage, 720 min): 95.0%
Release rate (percentage of Compound 1 released over time) (4 wks (40° C.) storage, 735 min): 94.3%
Release rate (percentage of Compound 1 released over time) (18 hrs (50° C.) curing, 30 min): 14.3%
Release rate (percentage of Compound 1 released over time) (18 hrs (50° C.) curing, 60 min): 21.8%
Release rate (percentage of Compound 1 released over time) (18 hrs (50° C.) curing, 120 min): 39.9%
Release rate (percentage of Compound 1 released over time) (18 hrs (50° C.) curing, 180 min): 56.3%
Release rate (percentage of Compound 1 released over time) (18 hrs (50° C.) curing, 240 min): 72.6%
Release rate (percentage of Compound 1 released over time) (18 hrs (50° C.) curing, 360 min): 89.2%
Release rate (percentage of Compound 1 released over time) (18 hrs (50° C.) curing, 480 min): 93.5%
Release rate (percentage of Compound 1 released over time) (18 hrs (50° C.) curing, 600 min): 95.7%
Release rate (percentage of Compound 1 released over time) (18 hrs (50° C.) curing, 720 min): 96.9%
Release rate (percentage of Compound 1 released over time) (18 hrs (50° C.) curing, 735 min): 95.6%
Release rate (percentage of Compound 1 released over time) (T = 0 (pre-curing), 30 min): 11.0%
Release rate (percentage of Compound 1 released over time) (T = 0 (pre-curing), 60 min): 18.3%
Release rate (percentage of Compound 1 released over time) (T = 0 (pre-curing), 120 min): 30.1%
Release rate (percentage of Compound 1 released over time) (T = 0 (pre-curing), 180 min): 39.6%
Release rate (percentage of Compound 1 released over time) (T = 0 (pre-curing), 240 min): 48.8%
Release rate (percentage of Compound 1 released over time) (T = 0 (pre-curing), 360 min): 64.1%
SMILES: O=C(O)COC[C@H]1CC[C@H](COC(=O)N(c2ccccc2)c2ccc(Cl)cc2)CC1 [Compound 1, 2-(((1r,4r)-4-(((4-chlorophenyl)(phenyl)carbamoyloxy)methyl)cyclohexyl)methoxy)acetic acid]
